Laboratory results: ChEMBL document CHEMBL5665443, “Enzyme Inhibitor Single Concentration assay results for EUbOPEN Chemogenomics Library” (2024)

Columns and labels:
[1] = molecular target: Methyl-CpG-binding domain protein 4 (Homo sapiens) (UniProt O95243); conditions: Compound Concentration 10.0 uM;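 further: MBD4 activity read as fluorescence at 594 nm from cleavage and release of a quenched duplex DNA oligonucleotide, with APE1 coupled to incise the strand and raise turnover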
Description: Inhibition of MBD4 by quantifying inhibition of MBD4-mediated cleavage and dissociation of quenched duplex DNA oligonucleotides, measured as fluorescence at 594 nm. To generate a functional strand incision and increase turn-over this assay is coupled to APE1.

[2] = molecular target: DNA-3-methyladenine glycosylase (Homo sapiens) (UniProt P29372); conditions: Compound Concentration 10.0 uM, Hit No;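 further: enzyme assay where MPG cuts a quenched duplex DNA oligonucleotide probe, paired with APE1 for strand incision and turnover, read as fluorescence at 594 nm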
Description: Inhibition of MPG by quantifying inhibition of MPG-mediated cleavage and dissociation of quenched duplex DNA oligonucleotides, measured as fluorescence at 594 nm. To generate a functional strand incision and increase turn-over this assay is coupled to APE1.

[3] = molecular target: T1, Adenine DNA glycosylase (Homo sapiens) (UniProt Q9UIF7); conditions: Compound Concentration 10.0 uM, Hit No;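 further: human MUTYH activity read as 594 nm fluorescence from cleavage and release of a quenched DNA duplex, coupled with APE1 for strand incision, lower signal meaning inhibition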
T1 sequence (whole entry): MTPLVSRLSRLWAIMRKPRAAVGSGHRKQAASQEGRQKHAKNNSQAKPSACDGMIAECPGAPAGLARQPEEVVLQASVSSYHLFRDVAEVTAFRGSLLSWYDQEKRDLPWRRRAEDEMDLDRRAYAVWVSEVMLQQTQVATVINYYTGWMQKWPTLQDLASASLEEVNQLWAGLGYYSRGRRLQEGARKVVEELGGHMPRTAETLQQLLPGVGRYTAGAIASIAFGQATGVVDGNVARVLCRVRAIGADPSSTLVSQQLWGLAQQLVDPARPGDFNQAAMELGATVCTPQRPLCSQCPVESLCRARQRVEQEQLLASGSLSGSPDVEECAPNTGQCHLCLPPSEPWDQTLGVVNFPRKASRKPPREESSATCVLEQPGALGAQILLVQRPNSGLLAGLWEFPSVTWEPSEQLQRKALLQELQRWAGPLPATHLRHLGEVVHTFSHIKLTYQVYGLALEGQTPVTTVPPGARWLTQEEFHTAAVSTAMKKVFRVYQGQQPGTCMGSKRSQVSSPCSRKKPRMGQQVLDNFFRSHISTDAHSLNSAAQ
Description: Inhibition of MUTYH by quantifying inhibition of MUTYH-mediated cleavage and dissociation of quenched duplex DNA oligonucleotides, measured as fluorescence at 594 nm. To generate a functional strand incision and increase turn-over this assay is coupled to APE1.

[4] = molecular target: Endonuclease 8-like 1 (Homo sapiens) (UniProt Q96FI4); conditions: Compound Concentration 10.0 uM, Hit No;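 further: fluorescence at 594 nm from quenched duplex DNA oligonucleotides released by NEIL1 cleavage and strand separation, reported as reduction of this enzyme activity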
Description: Inhibition of NEIL1 by quantifying inhibition of NEIL1-mediated cleavage and dissociation of quenched duplex DNA oligonucleotides, measured as fluorescence at 594 nm.

[5] = molecular target: T2, Endonuclease 8-like 2 (Homo sapiens) (UniProt Q969S2); conditions: Compound Concentration 10.0 uM, Hit No;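 further: fluorescence at 594 nm reports NEIL2 cutting and release of a quenched double-stranded DNA oligo substrate, reduced signal read as inhibition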
T2 sequence (whole entry): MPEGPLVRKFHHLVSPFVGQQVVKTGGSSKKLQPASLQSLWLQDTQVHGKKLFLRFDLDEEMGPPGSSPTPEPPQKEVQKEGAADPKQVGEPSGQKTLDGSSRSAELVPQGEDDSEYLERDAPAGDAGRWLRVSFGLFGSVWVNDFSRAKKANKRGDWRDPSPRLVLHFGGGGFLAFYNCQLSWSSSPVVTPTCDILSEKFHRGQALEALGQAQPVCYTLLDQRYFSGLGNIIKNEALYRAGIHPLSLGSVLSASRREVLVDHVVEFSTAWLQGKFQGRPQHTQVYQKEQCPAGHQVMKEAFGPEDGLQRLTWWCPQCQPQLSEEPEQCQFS
Description: Inhibition of NEIL2 by quantifying inhibition of NEIL2-mediated cleavage and dissociation of quenched duplex DNA oligonucleotides, measured as fluorescence at 594 nm.

[6] = molecular target: T3, Endonuclease III-like protein 1 (Homo sapiens) (UniProt P78549); conditions: Compound Concentration 10.0 uM;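 further: enzyme assay tracking NTHL1 cutting and release of a quenched double-stranded DNA oligo substrate, read as fluorescence at 594 nm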
T3 sequence (whole entry): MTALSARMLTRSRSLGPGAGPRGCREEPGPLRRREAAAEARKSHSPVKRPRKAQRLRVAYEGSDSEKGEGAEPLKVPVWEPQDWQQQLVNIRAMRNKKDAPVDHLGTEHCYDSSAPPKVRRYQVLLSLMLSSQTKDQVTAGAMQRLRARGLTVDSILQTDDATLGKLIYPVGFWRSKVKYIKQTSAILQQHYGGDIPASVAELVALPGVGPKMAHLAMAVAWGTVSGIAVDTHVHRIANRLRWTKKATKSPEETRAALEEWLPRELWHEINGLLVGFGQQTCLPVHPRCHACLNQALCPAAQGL
Description: Inhibition of NTHL1 by quantifying inhibition of NTHL1-mediated cleavage and dissociation of quenched duplex DNA oligonucleotides, measured as fluorescence at 594 nm.

[7] = molecular target: N-glycosylase/DNA lyase (Homo sapiens) (UniProt O15527); conditions: Compound Concentration 10.0 uM;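 further: OGG1 cleavage of a quenched duplex DNA oligonucleotide, coupled to APE1 for strand incision, read as fluorescence at 594 nm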
Description: Inhibition of OGG1 by quantifying inhibition of OGG1-mediated cleavage and dissociation of quenched duplex DNA oligonucleotides, measured as fluorescence at 594 nm. To generate a functional strand incision and increase turn-over this assay is coupled to APE1.

[8] = molecular target: T4, Single-strand selective monofunctional uracil DNA glycosylase (Homo sapiens) (UniProt Q53HV7); conditions: Compound Concentration 10.0 uM;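 further: enzymatic SMUG1 assay coupled with APE1, reading fluorescence at 594 nm released when a quenched double-stranded DNA oligonucleotide substrate is cleaved and separated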
T4 sequence (whole entry): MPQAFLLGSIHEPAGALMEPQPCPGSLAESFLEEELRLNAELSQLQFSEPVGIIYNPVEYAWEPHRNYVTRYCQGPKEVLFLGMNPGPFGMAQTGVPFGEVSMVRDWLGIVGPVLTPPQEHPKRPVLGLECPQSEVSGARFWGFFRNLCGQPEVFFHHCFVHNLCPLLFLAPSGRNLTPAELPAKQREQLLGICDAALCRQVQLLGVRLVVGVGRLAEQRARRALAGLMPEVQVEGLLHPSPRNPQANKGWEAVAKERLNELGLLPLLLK
Description: Inhibition of SMUG1 by quantifying inhibition of SMUG1-mediated cleavage and dissociation of quenched duplex DNA oligonucleotides, measured as fluorescence at 594 nm. To generate a functional strand incision and increase turn-over this assay is coupled to APE1.

[9] = molecular target: G/T mismatch-specific thymine DNA glycosylase (Homo sapiens) (UniProt Q13569); conditions: Compound Concentration 10.0 uM;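 further: human TDG cleavage of quenched duplex DNA oligonucleotides coupled to APE1, strand release read as fluorescence at 594 nm, inhibition of TDG activity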
Description: Inhibition of TDG by quantifying inhibition of TDG-mediated cleavage and dissociation of quenched duplex DNA oligonucleotides, measured as fluorescence at 594 nm. To generate a functional strand incision and increase turn-over this assay is coupled to APE1.

[10] = molecular target: Uracil-DNA glycosylase (Homo sapiens) (UniProt P13051); conditions: Compound Concentration 10.0 uM, Hit No;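 further: UNG excision on a quenched double-stranded DNA oligo probe, with APE1 added for strand incision and turnover, read as fluorescence at 594 nm as strands separate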
Sequence of Uracil-DNA glycosylase (Homo sapiens) (P13051 whole entry): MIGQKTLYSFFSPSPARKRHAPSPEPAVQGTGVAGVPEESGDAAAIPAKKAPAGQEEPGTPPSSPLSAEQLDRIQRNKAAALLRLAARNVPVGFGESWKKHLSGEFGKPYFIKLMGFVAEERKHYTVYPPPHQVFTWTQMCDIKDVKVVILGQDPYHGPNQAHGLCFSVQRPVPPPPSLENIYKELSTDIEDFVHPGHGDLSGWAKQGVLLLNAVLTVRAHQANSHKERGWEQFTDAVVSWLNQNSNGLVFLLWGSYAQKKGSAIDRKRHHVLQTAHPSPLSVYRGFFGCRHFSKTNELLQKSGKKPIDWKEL
Description: Inhibition of UNG by quantifying inhibition of UNG-mediated cleavage and dissociation of quenched duplex DNA oligonucleotides, measured as fluorescence at 594 nm. To generate a functional strand incision and increase turn-over this assay is coupled to APE1.

Sequence of N-glycosylase/DNA lyase (Homo sapiens) (O15527 whole entry): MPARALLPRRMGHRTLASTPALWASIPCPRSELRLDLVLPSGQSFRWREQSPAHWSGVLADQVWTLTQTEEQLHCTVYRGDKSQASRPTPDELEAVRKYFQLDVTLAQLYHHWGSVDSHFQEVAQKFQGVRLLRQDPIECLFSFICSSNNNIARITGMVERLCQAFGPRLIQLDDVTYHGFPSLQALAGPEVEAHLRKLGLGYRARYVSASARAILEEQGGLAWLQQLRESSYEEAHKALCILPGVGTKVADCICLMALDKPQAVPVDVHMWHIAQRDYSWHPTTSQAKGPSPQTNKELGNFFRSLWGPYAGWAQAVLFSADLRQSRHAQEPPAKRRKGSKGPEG
Sequence of DNA-3-methyladenine glycosylase (Homo sapiens) (P29372 whole entry): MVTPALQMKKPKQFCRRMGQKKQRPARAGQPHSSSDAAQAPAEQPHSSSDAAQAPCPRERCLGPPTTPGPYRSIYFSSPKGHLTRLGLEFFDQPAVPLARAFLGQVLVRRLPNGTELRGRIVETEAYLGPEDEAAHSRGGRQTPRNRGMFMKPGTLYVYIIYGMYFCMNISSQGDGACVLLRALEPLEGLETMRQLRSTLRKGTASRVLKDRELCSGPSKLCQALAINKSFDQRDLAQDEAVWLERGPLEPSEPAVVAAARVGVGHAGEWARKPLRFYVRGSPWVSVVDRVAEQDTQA
Sequence of Methyl-CpG-binding domain protein 4 (Homo sapiens) (O95243 whole entry, the tested form may be a part): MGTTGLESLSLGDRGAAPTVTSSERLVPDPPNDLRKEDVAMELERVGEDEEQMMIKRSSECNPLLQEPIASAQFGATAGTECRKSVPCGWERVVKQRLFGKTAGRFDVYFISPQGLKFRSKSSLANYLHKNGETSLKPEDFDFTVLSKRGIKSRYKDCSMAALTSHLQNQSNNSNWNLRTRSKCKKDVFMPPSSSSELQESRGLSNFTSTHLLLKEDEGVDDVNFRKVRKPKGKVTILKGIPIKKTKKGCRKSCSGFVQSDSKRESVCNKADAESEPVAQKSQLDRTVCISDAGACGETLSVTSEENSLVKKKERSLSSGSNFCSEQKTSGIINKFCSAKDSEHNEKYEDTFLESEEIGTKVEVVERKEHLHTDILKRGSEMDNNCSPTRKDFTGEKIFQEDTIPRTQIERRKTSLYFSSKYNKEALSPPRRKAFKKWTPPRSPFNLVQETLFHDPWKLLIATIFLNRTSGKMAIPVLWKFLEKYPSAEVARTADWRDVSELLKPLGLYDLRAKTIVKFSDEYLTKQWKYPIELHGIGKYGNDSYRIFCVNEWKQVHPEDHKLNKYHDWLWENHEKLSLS
Sequence of G/T mismatch-specific thymine DNA glycosylase (Homo sapiens) (Q13569 whole entry): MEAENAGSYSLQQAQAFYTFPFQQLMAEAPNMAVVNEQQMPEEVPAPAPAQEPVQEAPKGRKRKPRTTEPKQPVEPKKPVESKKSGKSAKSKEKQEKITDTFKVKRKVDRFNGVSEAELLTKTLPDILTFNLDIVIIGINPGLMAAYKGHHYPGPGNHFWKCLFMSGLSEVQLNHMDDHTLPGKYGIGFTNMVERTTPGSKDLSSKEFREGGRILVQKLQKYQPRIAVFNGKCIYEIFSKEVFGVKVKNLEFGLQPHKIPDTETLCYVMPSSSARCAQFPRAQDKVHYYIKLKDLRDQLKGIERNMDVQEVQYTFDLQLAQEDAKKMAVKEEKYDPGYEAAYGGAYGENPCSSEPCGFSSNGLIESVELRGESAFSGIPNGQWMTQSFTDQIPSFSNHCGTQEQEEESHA
Sequence of Endonuclease 8-like 1 (Homo sapiens) (Q96FI4 whole entry): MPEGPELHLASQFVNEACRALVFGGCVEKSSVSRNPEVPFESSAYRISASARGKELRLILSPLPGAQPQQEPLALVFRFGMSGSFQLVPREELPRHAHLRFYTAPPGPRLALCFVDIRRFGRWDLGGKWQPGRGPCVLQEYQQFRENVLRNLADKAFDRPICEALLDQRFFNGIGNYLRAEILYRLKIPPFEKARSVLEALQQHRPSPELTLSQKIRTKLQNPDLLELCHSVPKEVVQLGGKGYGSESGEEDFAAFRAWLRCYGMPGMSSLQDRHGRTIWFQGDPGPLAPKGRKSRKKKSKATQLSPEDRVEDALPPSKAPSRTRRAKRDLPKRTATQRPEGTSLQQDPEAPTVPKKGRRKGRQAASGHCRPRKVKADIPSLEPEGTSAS

Structure (SMILES)	inhibition ([1]; Hit No)	inhibition [2]	inhibition [3]	inhibition [4]	inhibition [5]	inhibition ([6]; Hit No)	inhibition ([7]; Hit No)	inhibition ([8]; Hit No)	inhibition ([9]; Hit No)	inhibition [10]	inhibition ([1]; Hit Yes)	inhibition ([6]; Hit Yes)	inhibition ([7]; Hit Yes)	inhibition ([8]; Hit Yes)	inhibition ([9]; Hit Yes)
NCC(O)c1ccc(O)cc1 (stereo not given)	41.7%	13.2%	17.4%	3.71%	2.96%	2.22%	-0.921%	16%	14.3%	0.665%					
CCc1nc2c(o1)CC(c1ccc(C)cc1C)CC2=O (stereo not given)	17.2%	23.6%	-1.84%	6.08%	6.53%	-4.39%	-9.46%	5.18%	16.4%	0.136%					
NCCc1c[nH]cn1	10.4%	-7.46%	10.5%	-0.352%	-0.234%	15.1%	0.419%	-0.0333%	7.61%	-7.79%					
Cc1ccnc(Nc2nc(-c3ccccn3)cs2)c1	9.11%	16%	13.9%	-0.88%	9.84%	17.1%	-1.19%	5.18%	17.8%	-7.33%					
CC(C)c1noc(N2CCC(COc3ccc(-c4ccc(S(C)(=O)=O)cc4)nc3)CC2)n1	-9.32%	-8.23%	18.2%	10.9%	5.01%	-6.14%	3.18%	-6.43%	3%	-6.54%					
O=C(O)c1ccc(S(=O)(=O)N(Cc2ccc(OC(F)(F)F)cc2)c2ncc(C(F)(F)F)cc2Cl)cc1	39.2%	12.7%	61.2%	11.7%	14.4%	14.6%	15.6%	2.42%	35%	2.72%					
Cc1cccc([C@H]2CC[C@@H](N3CCN(c4cccnc4)CC3)CC2)c1 (mixture of isomers)	56.1%	39%	35.8%	1.34%	9.59%	-0.258%	4.72%	15.5%	47.1%	1.66%					
O=c1c(Br)ccc2n1C[C@@H]1CNC[C@H]2C1	13.1%	3.69%	-5.79%	1.79%	-6.72%	8.82%	-1.3%	8.97%	22.8%	-0.226%					
CC[C@H]1[C@@H](O)[C@@H]2[C@H](CC[C@]3(C)[C@@H]([C@H](C)CCC(=O)O)CC[C@@H]23)[C@@]2(C)CC[C@@H](O)C[C@@H]12	77.2%	17.5%	24.4%	1.53%	1.55%	1.34%	26.2%	27.8%	67.3%	5.49%					
CCOC(=O)N[C@@H]1CC[C@@H]2[C@@H](C1)C[C@H]1C(=O)O[C@H](C)[C@H]1[C@H]2/C=C/c1ccc(-c2cccc(F)c2)cn1	-1.19%	-7.15%	1.43%	5.28%	-1.73%	2.66%	8.48%	10.5%	13.4%	-5.33%					
O=C(c1cc(C2CC2)on1)N(C1CCCCC1)C1CCCCC1	8.05%	42.7%	24.8%	0.306%	-3.92%	10.5%	0.0968%	-5.04%	14.9%	-1.05%					
COc1ccc(OC)c(-c2ccc(NC(=O)c3ccncc3F)cc2)c1	23.8%	28%	-1.87%	3.57%	-1.37%	-0.258%	1.6%	24.3%	15.8%	2.08%					
O=C(NS(=O)(=O)N1CCC1)c1cc(C2CC2)c(OCC23CC4CC(CC(C4)C2)C3)cc1F		60.8%	93%	7.57%	17.5%					7.9%	87.3%	56.7%	93.6%	98.5%	79.6%
O=C(O)C[C@H]1CCc2c1[nH]c1ccc(OCc3ccc(C4CCCC4)c(C(F)(F)F)c3)cc21	47.5%	18.9%	9.75%	-9.84%	0.515%	36.4%	34.1%	-8.03%	45%	-6.26%					
CC1(C)CCC[C@]2(C)[C@@H](C=O)C(C=O)=CC[C@@H]12	54.4%	14.4%	80.5%	-1.47%	8.57%	-1.08%		16.1%	49%	2.98%			88.4%		
NCCc1c[nH]c2ccc(C(N)=O)cc12	-4.67%	-1.86%	4.88%	7.95%	-5.97%	-7.6%	-3.21%	0.209%	8.45%	-6.78%					
Oc1cc2c(cc1O)CN(C(=S)NCCc1ccc(Cl)cc1)CCC2	39.2%	26.6%	73.8%	12.2%	6.53%	3.04%	-1.56%	1.46%	46.1%	3.52%					
Nc1nc2cc(-c3cc(Cl)ccc3Oc3cc(F)c(S(=O)(=O)Nc4ncns4)cc3F)ccc2[nH]1	38.8%	20.7%	39.3%	6.97%	-7.23%	6.35%	-2.14%	4.45%	33.8%	1.83%					
COc1cc(Nc2ccc([N+](=O)[O-])cc2C(=O)O)cc2ccccc12	71%	44%	91.9%	3.71%	5.25%	11.3%	33.4%	23.2%	67.3%	10.9%					
C[C@@H](CN1CCC(Cc2ccccc2)CC1)[C@@H](O)c1ccc(O)cc1	-0.918%	-5.23%	-7.47%	3.42%	2.2%	12.9%	-8.67%	4.28%	-7.39%	-6.48%					
CSc1ccc(C(=O)/C=C/c2cc(C)c(OC(C)(C)C(=O)O)c(C)c2)cc1	77.3%	-8.02%	16.2%	0.467%	2.06%	2%	18.2%	7.83%	99.6%	-1.57%					
